According to publication PMC3248958 (Bioorganic & medicinal chemistry, 2011):
Read-outs that look alike come from different tables or passages of the source.

Columns and labels:
[1] = tested on: quinone reductase 1 (QR1); assay: Quinone reductase 1; assay type: cell-based, mouse; settings: Hepa 1c1c7 cells; for QR1 Assay CD (concentration that doubles the activity): determined for compounds with induction ratios > 2
Human Aromatase = target: T1, Human Aromatase (Homo sapiens, UniProt P11511); assay: Aromatase assay; assay type: biochemical
T1 sequence (P11511 1-503): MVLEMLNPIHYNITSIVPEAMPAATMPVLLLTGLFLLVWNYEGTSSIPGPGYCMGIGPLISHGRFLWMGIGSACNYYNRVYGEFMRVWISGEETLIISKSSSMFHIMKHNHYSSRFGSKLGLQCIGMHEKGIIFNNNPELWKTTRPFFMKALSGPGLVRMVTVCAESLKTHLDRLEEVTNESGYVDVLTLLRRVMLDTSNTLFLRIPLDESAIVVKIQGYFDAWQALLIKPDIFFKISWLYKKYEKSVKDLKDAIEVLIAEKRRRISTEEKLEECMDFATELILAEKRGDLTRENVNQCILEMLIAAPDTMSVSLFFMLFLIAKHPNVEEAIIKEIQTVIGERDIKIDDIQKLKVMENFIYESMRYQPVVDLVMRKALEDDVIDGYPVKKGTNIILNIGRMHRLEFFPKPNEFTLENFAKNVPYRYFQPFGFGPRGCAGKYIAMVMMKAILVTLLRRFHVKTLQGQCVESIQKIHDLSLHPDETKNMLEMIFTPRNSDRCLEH

[2] = tested at 400 μM of each compound

SMILES	QR1 Assay CD (concentration that doubles the activity) [1] [µM]	further results
O=c1cc(-c2ccc(Br)cc2)oc2ccccc12 [4'-Bromoflavone, reference compound]	–	QR1 Assay CD of positive control ([1]; positive control): 0.01 M
c1cncc(-c2nsc(-c3cccnc3)n2)c1 [Compound 3b]	–	times higher aromatase inhibitory activity than trans-resveratrol (Human Aromatase): 30-125 times; times more potent than the lead compound 3a as an aromatase inhibitor (Human Aromatase): greater than 250 times; DPPH assay % inhibition [2]: -16.1±1.1%
c1cc(-c2nsc(-c3ccncc3)n2)ccn1 [Compound 3c]	> 50	times higher aromatase inhibitory activity than trans-resveratrol (Human Aromatase; relative to trans-resveratrol): 30-125 times; DPPH assay % inhibition [2]: -35.6±0.4%
Cc1ccc(-c2nsc(-c3ccc(C)cc3Br)n2)c(Br)c1 [Compound 3dd, 3,5-Bis(2-bromo-4-methylphenyl)-1,2,4-thiadiazole]	> 50	–
O=[N+]([O-])c1ccc(-c2nsc(-c3ccc([N+](=O)[O-])cc3)n2)cc1 [Compound 3ff]	> 50	–
COc1ccc(-c2nsc(-c3ccc(OC)cc3)n2)cc1 [Compound 3g]	> 50	–
N#Cc1ccc(-c2nsc(-c3ccc(C#N)cc3)n2)cc1 [Compound 3gg, 4,4′-(1,2,4-Thiadiazole-3,5-diyl)dibenzonitrile]	> 50	–
N#Cc1cccc(-c2nsc(-c3cccc(C#N)c3)n2)c1 [Compound 3hh, 3,3′-(1,2,4-Thiadiazole-3,5-diyl)dibenzonitrile]	> 50	–
Oc1ccc(-c2nsc(-c3ccc(O)cc3)n2)cc1 [Compound 3jj]	> 50	–
Ic1ccc(-c2nsc(-c3ccc(I)cc3)n2)cc1 [Compound 3l, 3,5-Bis(4-iodophenyl)-1,2,4-thiadiazole]	> 50	–
Nc1ccc(-c2nsc(-c3ccc(N)cc3)n2)cc1 [Compound 3ll, 3,5-Bis(4-aminophenyl)-1,2,4-thiadiazole]	> 50	–
Clc1ccc(-c2nsc(-c3ccc(Cl)c(Cl)c3)n2)cc1Cl [Compound 3v, 3,5-Bis(3,4-dichlorophenyl)-1,2,4-thiadiazole]	> 50	–
Cc1ccc(-c2nsc(-c3ccc(C)cc3)n2)cc1 [Compound 3x, 3,5-Di-p-tolyl-1,2,4-thiadiazole]	> 50	–
CCCCc1ccc(-c2nsc(-c3ccc(CCCC)cc3)n2)cc1 [Compound 3z, 3,5-Bis(4-butylphenyl)-1,2,4-thiadiazole]	> 50	–
Oc1ccc(CCc2cc(O)cc(O)c2)cc1 [dihydroresveratrol, reference compound]	> 50	–
